Laboratory results reported in patent US20170166555A1, “FUNCTIONALISED AND SUBSTITUTED INDOLES AS ANTI-CANCER AGENTS” (Novogen Limited, priority 2013, published 2017).
Like-named read-outs stand apart in the source and are kept apart here.

What was measured:
Experiment in all cases: Anti-proliferative assay, cell-titre luminescent reagent, 72 h (GVK-BIO)
Assay type in all cases: cell-based
[1] = test system: CaCo2 colorectal cancer cells; details: Homo sapiens
Procedure: (§1) The ability of compounds 4001, 4002, 4008, 4010, 4011, 4013-4015, 4018, 4026, 4045-4113 and 4115-4127 to inhibit the proliferation of cancer cells representative of neuroblastoma, melanoma, prostate cancer, colorectal cancer, non-small cell lung carcinoma, and triple negative breast cancer was assessed. These studies were conducted by contract research (GVK-BIO). Briefly, a pre-determined number of cells as calculated from cell growth assays for each of the cell lines employed were seeded into their respective culture medium (using ATCC culture parameters—http://www.atcc.org) and cultured for 24 h at 37° C. and 5% CO2 in 96-well culture plates. Once attached, each cell line was then exposed to various concentrations of each respective analogue (30, 3, 0.3 and 0.03 μM for compounds in Tables 2, 3 and 4; 30, 10, 3, 1, 0.3 and 0.1 μM for compounds in Table 5), cultured for a further 72 h and exposed to cell-titre luminescent reagent (100 μL/well) for a further 30 min). Luminescence was captured using an EnVision multilabel reader and the data for each analogue concentration compared against no treatment control. For compounds in Tables 2-4, semi-log plots of Percent of Control versus concentration were prepared and IC50 determined using linear regression analysis. For compounds in Table 5, cell viability was normalized to control (vehicle alone) and dose-response curves, and half maximal effective concentration (EC50) values were determined using Graph Pad Prism 6 (nonlinear regression sigmoidal dose-response variable slope).

[2] = test system: A549 non-small cell lung carcinoma cells; details: Homo sapiens, read-out: IC50/μM Lung (NSLC) A549
Procedure: as §1

[3] = test system: MDA-MB-231 triple negative breast cancer cells; details: Homo sapiens
Procedure: as §1

[4] = test system: DU145 prostate cancer cells; details: Homo sapiens
Procedure: as §1

[5] = test system: SK-N-SH neuroblastoma cells; details: Homo sapiens
Procedure: as §1

[6] = test system: PC3 prostate cancer cells
Procedure: as §1

SK-Mel-28 melanoma cells = details: Homo sapiens
Procedure: as §1

[7] = Caco-2, 72 h, 30, 10, 3, 1, 0.3 and 0.1 μM, nonlinear regression (Table 5)
[8] = A549, 72 h, 30, 10, 3, 1, 0.3 and 0.1 μM, nonlinear regression (Table 5)
[9] = MDA-MB-231, 72 h, 30, 10, 3, 1, 0.3 and 0.1 μM, nonlinear regression (Table 5)
[10] = DU-145, 72 h, 30, 10, 3, 1, 0.3 and 0.1 μM, nonlinear regression (Table 5)
[11] = SK-N-SH, 30, 10, 3, 1, 0.3 and 0.1 μM, nonlinear regression (Table 5)
[12] = 30, 10, 3, 1, 0.3 and 0.1 μM, nonlinear regression (Table 5)
[13] = SK-MEL-28, 72 h, 30, 10, 3, 1, 0.3 and 0.1 μM, nonlinear regression (Table 5)
[14] = Caco-2, 72 h, 30, 3, 0.3 and 0.03 μM, linear regression (Tables 2-4)
[15] = A549, 72 h, 30, 3, 0.3 and 0.03 μM, linear regression (Tables 2-4)
[16] = MDA-MB-231, 72 h, 30, 3, 0.3 and 0.03 μM, linear regression (Tables 2-4)
[17] = DU-145, 72 h, 30, 3, 0.3 and 0.03 μM, linear regression (Tables 2-4)
[18] = SK-N-SH, 30, 3, 0.3 and 0.03 μM, linear regression (Tables 2-4)
[19] = 30, 3, 0.3 and 0.03 μM, linear regression (Tables 2-4)
[20] = SK-MEL-28, 72 h, 30, 3, 0.3 and 0.03 μM, linear regression (Tables 2-4)

| SMILES | IC50 [1, 7] [µM] | IC50 [2, 8] [µM] | IC50 [3, 9] [µM] | IC50 [4, 10] [µM] | IC50 [5, 11] [µM] | IC50 [6, 12] [µM] | IC50 (SK-Mel-28 melanoma cells; [13]) [µM] | IC50 [1, 14] [µM] | IC50 [2, 15] [µM] | IC50 [3, 16] [µM] | IC50 [4, 17] [µM] | IC50 [5, 18] [µM] | IC50 [6, 19] [µM] | IC50 (SK-Mel-28 melanoma cells; [20]) [µM] |
| --- | --- | --- | --- | --- | --- | --- | --- | --- | --- | --- | --- | --- | --- | --- |
| CN(C)CCCn1ccc2cc(Nc3cccc(C(=O)Nc4ccc5c(c4)OCO5)c3)ccc21 [Compound 4069, N-(benzo[d][1,3]dioxol-5-yl)-3-((1-(3-(dimethylamino)propyl)-1H-indol-5-yl)amino)benzamide] |  |  |  |  |  |  |  | > 30 | 4.2 | 4.2 | 4.4 | 3.4 | 9.9 | 2.5 |
| Cc1c(C)n(CCCN(C)C)c2ccc(Oc3cccc(C(=O)Nc4cccc(F)c4)c3)cc12 [Compound 4064] |  |  |  |  |  |  |  | 3.8 | 3.5 | 3.3 | 3.4 | 2.4 | 2.6 | 2.7 |
| COc1cccc(NC(=O)c2cccc(Cc3ccc4c(ccn4CCCN(C)C)c3)c2)c1 [Compound 4049, 3-((1-(3-(dimethylamino)propyl)-1H-indol-5-yl)methyl)-N-(3-methoxyphenyl)benzamide] |  |  |  |  |  |  |  | 3.2 | 3 | 3.4 | 3.3 | 3.3 | 3.4 | 3.1 |
| Cc1c(C)n(CCCN(C)C)c2ccc(Oc3cccc(C(=O)Nc4ccccc4)c3)cc12 [Compound 4066, 3-((1-(3-(dimethylamino)propyl)-2,3-dimethyl-1H-indol-5-yl)oxy)-N-phenylbenzamide] | 14.8 | 8.5 | 11.4 | 6.9 | 5.4 | 10 | 4.9 |  |  |  |  |  |  |  |
| CN(C)CCCn1ccc2cc(Cc3ccc(C(=O)Nc4cccc(F)c4)cc3)ccc21 [Compound 4080, 4-((1-(3-(dimethylamino)propyl)-1H-indol-5-yl)methyl)-N-(3-fluorophenyl)benzamide] |  |  |  |  |  |  |  | 3 | 3.1 | 3.2 | 3.5 | 2.8 | 3 | 3.1 |
| Cc1c(C)n(CCCN(C)C)c2ccc(Cc3cccc(C(=O)Nc4ccc(F)cc4)c3)cc12 [Compound 4050] |  |  |  |  |  |  |  | 4.2 | 3.1 | 3.7 | 4.3 | 4 | 4.2 | 2.6 |
| COc1ccc(CCN2CCN(Cc3ccc4c(c3)c(C)c(C)n4CCCN3CCN(C)CC3)CC2)cc1 [Compound 4111, 5-((4-(4-methoxyphenethyl)piperazin-1-yl)methyl)-2,3-dimethyl-1-(3-(4-methylpiperazin-1-yl)propyl)-1H-indole] | 7.9 | 5.5 | 3.9 | 11.3 | 3.4 | 7.5 | 2.4 |  |  |  |  |  |  |  |
| Cc1c(C)n(CCCN2CCN(C)CC2)c2ccc(C(=O)N3CCN(CCc4cccc(F)c4)CC3)cc12 [Compound 4124, (2,3-dimethyl-1-(3-(4-methyl piperazin-1-yl)propyl)-1H-indol-5-yl)(4-(3-fluorophenethyl)piperazin-1-yl)methanone] |  |  |  |  |  |  |  | 29.6 | 15 | 13.9 | > 30 | 10.9 | 21.8 | 15.9 |
| COc1cccc(NC(=O)c2cccc(Oc3ccc4c(c3)c(C)c(C)n4CCCN(C)C)c2)c1 [Compound 4065, 3-((1-(3-(dimethylamino)propyl)-2,3-dimethyl-1H-indol-5-yl)oxy)-N-(3-methoxyphenyl)benzamide] | 6.5 | 4.6 | 5 | 4.2 | 5.2 | 6.5 | 5 |  |  |  |  |  |  |  |
| Cc1c(C)n(CCCN(C)C)c2ccc(C(=O)N3CCN(CCc4ccc(O)cc4)CC3)cc12 [Compound 4119, (1-(3-(dimethylamino)propyl)-2,3-dimethyl-1H-indol-5-yl)(4-(4-hydroxyphenethyl)piperazin-1-yl)methanone] | > 30 | > 30 | > 30 | > 30 | > 30 | > 30 | > 30 |  |  |  |  |  |  |  |
| CN(C)CCCn1ccc2cc(Oc3ccc(C(=O)Nc4ccc(F)cc4)cc3)ccc21 [Compound 4088, 4-((1-(3-(dimethylamino)propyl)-1H-indol-5-yl)oxy)-N-(4-fluorophenyl)benzamide] |  |  |  |  |  |  |  | 4.1 | 3.4 | 3.8 | 3.3 | 3.4 | 3.5 | 4.3 |

Now from value to compound:

| IC50 [1, 7] [µM] | IC50 [2, 8] [µM] | IC50 [3, 9] [µM] | IC50 [4, 10] [µM] | IC50 [5, 11] [µM] | IC50 [6, 12] [µM] | IC50 (SK-Mel-28 melanoma cells; [13]) [µM] | IC50 [1, 14] [µM] | IC50 [2, 15] [µM] | IC50 [3, 16] [µM] | IC50 [4, 17] [µM] | IC50 [5, 18] [µM] | IC50 [6, 19] [µM] | IC50 (SK-Mel-28 melanoma cells; [20]) [µM] | SMILES |
| --- | --- | --- | --- | --- | --- | --- | --- | --- | --- | --- | --- | --- | --- | --- |
| 9.1 | 6.5 | 3.6 | 5.3 | 3.7 | 9.5 | 1 |  |  |  |  |  |  |  | Cc1c(C)n(CCCN(C)C)c2ccc(CN3CCN(CCc4ccc(F)cc4)CC3)cc12 [Compound 4109, 3-(5-((4-(4-fluorophenethyl)piperazin-1-yl)methyl)-2,3-dimethyl-1H-indol-1-yl)-N,N-dimethylpropan-1-amine] |
|  |  |  |  |  |  |  | 1.7 | 2.3 | 1.7 | 3.1 | 2.2 | 2.9 | 2.5 | CN(C)CCCn1ccc2cc(Nc3cccc(C(=O)Nc4cccc(F)c4)c3)ccc21 [Compound 4070, 3-((1-(3-(dimethylamino)propyl)-1H-indol-5-yl)amino)-N-(3-fluorophenyl)benzamide] |
|  |  |  |  |  |  |  | 4 | 2.9 | 3.7 | 3.4 | 3.4 | 3.3 | 3.8 | Cc1c(C)n(CCCN(C)C)c2ccc(Oc3ccc(C(=O)Nc4ccccc4)cc3)cc12 [Compound 4098, 4-((1-(3-(dimethylamino)propyl)-2,3-dimethyl-1H-indol-5-yl)oxy)-N-phenylbenzamide] |
|  |  |  |  |  |  |  | 3.2 | 1.7 | 1.9 | 2.6 | 3.2 | 1.1 | 1.9 | COc1ccc(NC(=O)c2cccc(Cc3ccc4c(ccn4CCCN(C)C)c3)c2)cc1 [Compound 4046, 3-((1-(3-(dimethylamino)propyl)-1H-indol-5-yl)methyl)-N-(4-methoxyphenyl)benzamide] |
| > 30 | > 30 | > 30 | > 30 | > 30 | > 30 | > 30 |  |  |  |  |  |  |  | Cc1c(C)n(CCCN2CCN(C)CC2)c2ccc(C(=O)N3CCN(CCc4ccc(O)cc4)CC3)cc12 [Compound 4122, (2,3-dimethyl-1-(3-(4-methylpiperazin-1-yl)propyl)-1H-indol-5-yl)(4-(4-hydroxyphenethyl)piperazin-1-yl)methanone] |
|  |  |  |  |  |  |  | 3.1 | 2.9 | 2.5 | 2.9 | 1.6 | 2.1 | 2.3 | COc1cccc(NC(=O)c2ccc(Cc3ccc4c(ccn4CCCN(C)C)c3)cc2)c1 [Compound 4081, 4-((1-(3-(dimethylamino)propyl)-1H-indol-5-yl)methyl)-N-(3-methoxyphenyl)benzamide] |
|  |  |  |  |  |  |  | > 30 | > 30 | > 30 | > 30 | 31.9 | > 30 | 18.1 | Cc1c(C)n(CCCN(C)C)c2ccc(C(=O)N3CCN(CCc4ccc(F)cc4)CC3)cc12 [Compound 4118, (1-(3-(dimethylamino)propyl)-2,3-dimethyl-1H-indol-5-yl)(4-(4-fluorophenethyl)piperazin-1-yl)methanone] |
